Assay [1] relates to AML12 Cell Line. Description: Transfection of AML12 Cell Line with FLuc mRNA LNPs (ONE-Glo EX luciferase signal). It is filed as cell-based. The conditions noted are these: 200 ng Fluc mRNA-LNP, 24 hours; Table 4. On the procedure:
(§1) mRNA encapsulated lipid nanoparticles (mRNA LNPs) were formulated using microfluidic mixing with a PNI Ignite instrument. Briefly, lipids (ionizable: structural: helper: PEG) were dissolved in ethanol and mixed with and aqueous solution of mRNA. These mRNA-loaded dispersions were then neutralized via a buffer exchange with a pre-determined buffer overnight. Afterwards, formed LNPs were concentrated with Amicon filter centrifugation, filtered, concentration of mRNA determined through a ribogreen assay, and frozen at −80° C. until use.
(§2) Cell lines were grown to confluence in T75 flasks using complete media of DMEM-F12 for AML12 and DMEM for both B16F10 and MC38.K. Cells were plated in a white 96 flat-well plate (AML12=20,000 cells/well, B16F10 and MC38.K=5,000 cells/well) with their respected media. Lipid nanoparticles were first diluted to 50 μg/ml using Opti-MEM and pre-incubated with mouse serum for 30 minutes to give an LNP concentration of 8 μg/ml. Cell media was replaced with Opti-MEM and LNPs were added to cells (200 ng of mRNA-LNP), placed back in the incubator, and allowed to transfect for 24 hours. Afterwards, 100 μl of Promega's ONE-Glo™ EX Luciferase Assay System or Promega's CellTiter-Glo® Luminescent Cell Viability Assay was added and mixed in their respective wells, followed by recording luminescence signals on a Thermo Scientific Varioskan LUX multimode microplate reader. The results are shown in FIG. 1, FIG. 2, FIG. 3, FIG. 4, FIG. 5, FIG. 6, FIG. 10, FIG. 11, and FIG. 21.

For assay [2], the system named is MC38.K Cell Line. In words: Transfection of MC38.K Cell Line with FLuc mRNA LNPs (ONE-Glo EX luciferase signal). The class given is cell-based. The conditions noted are these: 200 ng Fluc mRNA-LNP, 24 hours; Table 4. On the procedure: as §1, §2
Assay [3] has as its system B16F10 Cell Line. In words: Transfection of B16F10 Cell Line with FLuc mRNA LNPs (ONE-Glo EX luciferase signal). The class given is cell-based. The conditions noted are these: 200 ng Fluc mRNA-LNP, 24 hours; Table 4. Here is the method: as §1, §2
The subject of assay [4] is Liver. In words: Ex-vivo luminescence signal from liver after IV Fluc mRNA LNPs in CD1 mice (IVIS). The conditions noted are these: tail vein 1.0 mg/kg Day 0 and Day 2, imaging 18 hours after second dose, Table 4.

For `CCCCCCCCC(CCCCCCCC)C(=O)OCCCCCCCN(CCO)CCCCCCCOC(=O)CCCCCCCCC(C)C` [Compound 14], the “Total Luciferin Signal (RLU) In Vitro - AML12” value in assay [1] came to 2.94E+06 RLU. Further, the “Total Luciferin Signal (RLU) In Vitro - MC38.K” value in assay [2] stood at 4.71E+06 RLU. Further, the “Total Luciferin Signal (RLU) In Vitro - B16F10” value in assay [3] was 5.12E+06 RLU. The “Total Liver Tissue Luciferin Signal (Photons/s) Ex-vivo - CD1” value in assay [4] is recorded as 1.93E+09 Photons/s.
For `CCCCCCCCC(CCCCCCCC)OC(=O)CCCCCN(CCO)CCCCCC(=O)OCCCCCCCCCCC(C)C` [Compound 16] the same measures were 1.67E+06 RLU, 2.39E+06 RLU, 7.67E+06 RLU and 5.11E+09 Photons/s.
For `CCCCCCCCCCCOC(=O)CCCCCN(CCCCCCCC(=O)OC(CCCCCCCC)CCCCCC(C)C)CCOC(=O)CCCN(C)C` (stereo not drawn) [Compound 19] the same measures were 6.91E+05 RLU, 1.90E+06 RLU, 1.27E+06 RLU and 1.28E+08 Photons/s.
For the molecule `CCCCCCCCC(CCCCCCCC)C(=O)OCCCCCCCN(CCO)CCCCCCCOC(=O)CCCCCCCC=C(C)C` [Compound 20], the “Total Luciferin Signal (RLU) In Vitro - AML12” value in assay [1] came to 7.65E+05 RLU. For the same molecule, the “Total Luciferin Signal (RLU) In Vitro - MC38.K” value in assay [2] was 7.88E+05 RLU. Also, the “Total Luciferin Signal (RLU) In Vitro - B16F10” value in assay [3] came to 4.65E+05 RLU. In assay [4], the “Total Liver Tissue Luciferin Signal (Photons/s) Ex-vivo - CD1” value is given as 7.61E+09 Photons/s.
`CCCCCCCCCCCOC(=O)CCCCCN(CCO)CCCCCCCC(=O)OC(CCCCCCCC)CCCCCCCF` (stereo not drawn) [Compound 24]: in assay [1], the “Total Luciferin Signal (RLU) In Vitro - AML12” value amounted to 5.98E+05 RLU. Besides, the “Total Luciferin Signal (RLU) In Vitro - MC38.K” value in assay [2] was 7.60E+05 RLU. For the same molecule, the “Total Luciferin Signal (RLU) In Vitro - B16F10” value in assay [3] was determined as 3.37E+05 RLU. Also, in assay [4], the “Total Liver Tissue Luciferin Signal (Photons/s) Ex-vivo - CD1” value turned out to be 1.04E+10 Photons/s.
As for `CCCCCCCCCOC(=O)CCCCCN(CCO)CCCCCCCC(=O)OC(CCCCCCCC)CCCCCCCF` (stereo not drawn) [Compound 25], the “Total Luciferin Signal (RLU) In Vitro - AML12” value in assay [1] came to 1.09E+05 RLU. Besides, the “Total Luciferin Signal (RLU) In Vitro - MC38.K” value in assay [2] turned out to be 9.18E+05 RLU. For the same molecule, the “Total Luciferin Signal (RLU) In Vitro - B16F10” value in assay [3] is 4.43E+05 RLU. Also, the “Total Liver Tissue Luciferin Signal (Photons/s) Ex-vivo - CD1” value in assay [4] was found to be 2.05E+09 Photons/s.
The matching figures for `CCCCCCCCC(CCCCCCCF)OC(=O)CCCCCCCN(CCO)CCCCCC(=O)OCCCCCCC(C)C` (stereo not drawn) [Compound 26]: 1.95E+05 RLU, 2.33E+05 RLU, 1.73E+05 RLU and 5.54E+09 Photons/s.
The matching figures for `CCCCCCCCCC(=O)OCCCCCCCN(CCO)CCCCCCCOC(=O)C(CCCCCCCC)CCCCCCCF` (stereo not drawn) [Compound 27]: 3.02E+05 RLU, 2.37E+05 RLU, 6.19E+04 RLU and 5.60E+09 Photons/s.
For `CCCCCCCCC(CCCCCCCF)OC(=O)CCCCCCCN(CCO)CCCCCC(=O)OC(CCCCCCCC)CCCCCCCC` (stereo not drawn) [Compound 29] the same measures were 8.52E+04 RLU, 2.97E+05 RLU, 8.63E+05 RLU and 7.57E+09 Photons/s.
Regarding `CCCCCCCCCOC(=O)CCCCCCCN(CCCO)CCCCCCCC(=O)OC(CCCCCCCC)CCCCCCCCF` (stereo not drawn) [Compound 30], the “Total Luciferin Signal (RLU) In Vitro - AML12” value in assay [1] is recorded as 8.06E+05 RLU. In addition, the “Total Luciferin Signal (RLU) In Vitro - MC38.K” value in assay [2] turned out to be 4.65E+05 RLU. The “Total Luciferin Signal (RLU) In Vitro - B16F10” value in assay [3] is 1.16E+05 RLU. For the same molecule, the “Total Liver Tissue Luciferin Signal (Photons/s) Ex-vivo - CD1” value in assay [4] came out at 1.53E+10 Photons/s.
Take `CCCCCCCCCC(=O)OCCCCCCCN(CCO)CCCCCCCC(=O)OC(CCCCCCCC)CCCCCCCCF` (stereo not drawn) [Compound 32]: the “Total Luciferin Signal (RLU) In Vitro - AML12” value in assay [1] was found to be 1.53E+05 RLU. Besides, the “Total Luciferin Signal (RLU) In Vitro - MC38.K” value in assay [2] is on record as 4.43E+05 RLU. The “Total Luciferin Signal (RLU) In Vitro - B16F10” value in assay [3] turned out to be 2.09E+05 RLU. Moreover, the “Total Liver Tissue Luciferin Signal (Photons/s) Ex-vivo - CD1” value in assay [4] was determined as 3.13E+09 Photons/s.
The matching figures for `CCCCCCCCCCCOC(=O)CCCCCN(CCO)CCCCCCCC(=O)OC(CCCCCCCC)CCCCCCCCF` (stereo not drawn) [Compound 33]: 1.38E+05 RLU, 1.07E+06 RLU, 4.80E+05 RLU and 2.93E+09 Photons/s.
With `CCCCCCCCCOC(=O)CCCCCN(CCO)CCCCCCCC(=O)OC(CCCCCCCC)CCCCCCCCF` (stereo not drawn) [Compound 34], the “Total Luciferin Signal (RLU) In Vitro - AML12” value in assay [1] is on record as 1.56E+05 RLU. Besides, the “Total Luciferin Signal (RLU) In Vitro - MC38.K” value in assay [2] was found to be 4.19E+05 RLU. Besides, in assay [3], the “Total Luciferin Signal (RLU) In Vitro - B16F10” value is recorded as 238754.8 RLU. For the same molecule, the “Total Liver Tissue Luciferin Signal (Photons/s) Ex-vivo - CD1” value in assay [4] was found to be 1.89E+09 Photons/s.
The matching figures for `CCCCCCCCC(CCCCCCCCF)OC(=O)CCCCCCCN(CCO)CCCCCC(=O)OC(CCCCCCCC)CCCCCCCC` (stereo not drawn) [Compound 35]: 1.57E+05 RLU, 4.52E+05 RLU, 4.43E+05 RLU and 1.51E+10 Photons/s.
The matching figures for `CCCCCCCCCOC(=O)CCCCCCCN(CCO)CCCCCCC(C)C(=O)OC(CCCCCCCC)CCCCCCCC` (stereo not drawn) [Compound 36]: 2.18E+05 RLU, 2.32E+05 RLU, 2.85E+05 RLU and 6.41E+08 Photons/s.
For `CCCCCCCCCOC(=O)C(C)CCCCCCN(CCO)CCCCCCCC(=O)OC(CCCCCCCC)CCCCCCCC` (stereo not drawn) [Compound 37] the same measures were 7.63E+05 RLU, 1.00E+06 RLU, 2.66E+06 RLU and 6.65E+09 Photons/s.
As for `CCCCCCCCCOC(=O)CCCCCCCN(CCCCCCC(C)C(=O)OC(CCCCCCCC)CCCCCCCC)CCOC(=O)CCCN(C)C` (stereo not drawn) [Compound 38, heptadecan-9-yl 8-((2-((4-(dimethylamino)butanoyl)oxy)ethyl)(8-(nonyloxy)-8-oxooctyl)amino)-2-methyloctanoate], the “Total Luciferin Signal (RLU) In Vitro - AML12” value in assay [1] is on record as 1.22E+06 RLU. Further, the “Total Luciferin Signal (RLU) In Vitro - MC38.K” value in assay [2] amounted to 2.06E+06 RLU. For the same molecule, the “Total Luciferin Signal (RLU) In Vitro - B16F10” value in assay [3] was found to be 2.75E+06 RLU. Moreover, the “Total Liver Tissue Luciferin Signal (Photons/s) Ex-vivo - CD1” value in assay [4] was 5.28E+07 Photons/s.
Consider `[2H]C([2H])(O)C([2H])([2H])N(CCCCCCCC(=O)OCCCCCCCCC)CCCCCCCC(=O)OC(CCCCCCCC)CCCCCCCC` [Compound 39, heptadecan-9-yl 8-((2-hydroxyethyl-1,1,2,2-d4)(8-(nonyloxy)-8-oxooctyl)amino)octanoate], for which, in assay [1], the “Total Luciferin Signal (RLU) In Vitro - AML12” value is on record as 6.92E+05 RLU. The “Total Luciferin Signal (RLU) In Vitro - MC38.K” value in assay [2] came to 8.82E+05 RLU. Also, the “Total Luciferin Signal (RLU) In Vitro - B16F10” value in assay [3] is listed as 3.58E+05 RLU. In assay [4], the “Total Liver Tissue Luciferin Signal (Photons/s) In Vitro - CD1” value amounted to 7.86E+06 Photons/s.
Regarding `[2H]C([2H])(OC(=O)CCCN(C)C)C([2H])([2H])N(CCCCCCCC(=O)OCCCCCCCCC)CCCCCCCC(=O)OC(CCCCCCCC)CCCCCCCC` [Compound 40, heptadecan-9-yl 8-((2-((4-(dimethylamino)butanoyl)oxy)ethyl-1,1,2,2-d4)(8-(nonyloxy)-8-oxooctyl)amino)octanoate], the “Total Luciferin Signal (RLU) In Vitro - AML12” value in assay [1] came to 4.13E+06 RLU. Besides, the “Total Luciferin Signal (RLU) In Vitro - MC38.K” value in assay [2] amounted to 8.09E+06 RLU. Moreover, in assay [3], the “Total Luciferin Signal (RLU) In Vitro - B16F10” value amounted to 3.61E+06 RLU. For the same molecule, the “Total Liver Tissue Luciferin Signal (Photons/s) Ex-vivo - CD1” value in assay [4] is 1.12E+08 Photons/s.
Consider `CCCCCCCCCCCCN(CCO)CCCCCC(=O)OCCCCCCCCCCC` [Compound 42], for which the “Total Luciferin Signal (RLU) In Vitro - AML12” value in assay [1] stood at 2.36E+04 RLU. Besides, the “Total Luciferin Signal (RLU) In Vitro - MC38.K” value in assay [2] is 5.65E+04 RLU. Moreover, in assay [3], the “Total Luciferin Signal (RLU) In Vitro - B16F10” value is reported as 1.91E+04 RLU. In assay [4], the “Total Liver Tissue Luciferin Signal (Photons/s) In Vitro - CD1” value is on record as 2.04E+06 Photons/s.
As for `CC(C)CCCCCCCCOC(=O)CCCCCCCN(CCO)CCCCCCCC(=O)OCCCCCCCCC(C)C` [Compound 45], the “Total Luciferin Signal (RLU) In Vitro - AML12” value in assay [1] is recorded as 3.98E+05 RLU. The “Total Luciferin Signal (RLU) In Vitro - MC38.K” value in assay [2] is recorded as 1.09E+06 RLU. The “Total Luciferin Signal (RLU) In Vitro - B16F10” value in assay [3] worked out at 1.98E+06 RLU. For the same molecule, the “Total Liver Tissue Luciferin Signal (Photons/s) Ex-vivo - CD1” value in assay [4] amounted to 4.18E+08 Photons/s.

The values are drawn from patent US20260116845A1, “LIPIDS AND COMPOSITIONS THEREOF” (Kernal Biologics, Inc., priority 2023, published 2026).
